# How the values were obtained:
# islets = assay: Insulin and proinsulin in the media of 24 hr treated islets; type: cell-based, mouse; conditions: 24 hr treatment
# Procedure: A) Proinsulin in the media of 24 hr treated islets (n=4/group). B) Mitochondrial membrane potential (MMP) following acute addition of vehicle control or 200 μM of CMPF (N=3/group). C) ROS levels in 4- and 24-hour treated mouse islets with representative images (N=10-15 islets/mouse from 4 mice/group). D) Expression of antioxidant genes Cat and (e) Ucp2 (n=4/group). F) ROS accumulation in 24 hr-treated islets treated with 500 μM NAC (n=10 islets/mouse from 4 mice/group). G) GSIS and (h) total insulin content from 24 hr-treated islets co-treated with 500 μM NAC (n=4/group). Western blots showing (i) Ser9 phosphorylation of GSK3β, (j) Ser473 phosphorylation of AKT (n=3/group). K) Immunofluorescent staining showing nuclear translocation of FOXO1 and (l) PDX1 with CMPF and NAC treatment (n=3-6). Quantification of nuclear percentage of (m) FOXO1 and (n) PDX1 based on immunofluorescent staining with CMPF and NAC treatment. […]
# Lower total insulin content may be due to beta-cell exhaustion caused by over-stimulation and/or defective insulin production. To determine the mechanism through which CMPF diminishes insulin content, we measured insulin in the media following 24 hr treatment. […] To first determine if CMPF is metabolized by beta-cells, we measured changes in mitochondrial membrane potential (MMP) in mouse islets acutely treated with CMPF. […]
# dispersed mouse islets = assay: Mitochondrial membrane potential (rhodamine 123); type: cell-based; conditions: 200 μM
# Procedure: Dispersed isolated islets were treated with either vehicle control or 200 μM CMPF for 24 hours prior to loading with rhodamine 123 (25 ug/ml, 10 min) in 2.8 mM glucose imaging buffer. 5 mM NaN3 was added to fully depolarize the MMP (Diao et al., 2008).
# Lower total insulin content may be due to beta-cell exhaustion caused by over-stimulation and/or defective insulin production. To determine the mechanism through which CMPF diminishes insulin content, we measured insulin in the media following 24 hr treatment. […] Impaired insulin processing has previously been associated with elevated levels of the mitochondrial protein uncoupling protein 2 (UCP2) (Kashemsant and Chan, 2006). Excess substrate for the electron transport chain leads to the formation of ROS, which can induce UCP2 expression. To first determine if CMPF is metabolized by beta-cells, we measured changes in mitochondrial membrane potential (MMP) in mouse islets acutely treated with CMPF. […] This corresponded to a 2-fold increase in ROS in CMPF-treated islets over controls after 4 and 24 hrs of treatment (FIG. 17c). […] The increase in ROS production caused by CMPF-treatment was inhibited by co-treatment with the antioxidant N-Acetyl-Cysteine (NAC) (FIG. 17f). Importantly, co-treatment with NAC rescued insulin secretion and insulin content to near control levels in CMPF-treated islets (FIG. 17g,h). Therefore, oxidative stress caused by CMPF metabolism impaired GSIS and insulin processing, and is reversible through reducing ROS generation.
# Given that CMPF causes hyperinsulinemia during the fed-state in vivo, and exaggerated secretion of insulin from islets under non-stimulatory conditions in vitro, we rationalized that there must be a defect in glucose-sensing and/or secretion of insulin that could not be solely explained by effects on insulin production. […] To confirm changes in mitochondrial function, 24 hr CMPF treated islets were analyzed by microarray. […] When organized based on biological process, the largest differentially expressed cluster encompassed genes involved in metabolism (38%) (FIG. 17c). […]
# MIN6 cells = assay: Annexin V and propidium iodide staining for apoptosis and necrosis; type: cell-based, murine; conditions: 20 uM or 200 uM, 4 hrs
# Procedure: A) MIN6 cells were treated for 4 hrs with 0 uM (EtOH vehicle control), 20 uM or 200 uM CMPF prior to being loaded with Annexin V and propidium iodide fluorescent dyes, and counterstained with Hoechst dye. […] B) Primary CD1 islets were dispersed and treated with vehicle control (0 CMPF, black), 20 uM CMPF (grey), or 200 uM CMPF (white) for 48 hours, then stained with Annexin V, Propidium Iodide and Hoechst dye. Quantification of double positive staining was assessed by an Arrayscan VTI HCS reader.
# Next the mechanism underlying the observed impairment in GSIS following treatment with CMPF was investigated. To determine whether CMPF was inhibiting GSIS by inducing beta cell apoptosis, Annexin V and Propidium Iodide staining was performed in MIN6 cells treated with vehicle (EtOH), 20 uM or 200 uM CMPF for 4 hrs to look for apoptosis and necrosis respectively. […] MIN6 cells treated with 5 mM H2O2 for 3 hrs were used as a positive control (FIG. 4).
# primary murine islets = assay: Glucose- and KCl-stimulated insulin secretion in primary murine islets; type: cell-based; conditions: 200 uM
# Procedure: (§1) LG=2.8 mM glucose, HG=16.7 mM glucose, KCl=16.7 mM glucose+30 mM KCl. *p<0.05.
# (§2) Since beta cell failure is a major underlying cause of both GDM and T2D, the effect of increased CMPF on beta cell function was investigated both in vitro and in vivo. Using physiological concentrations of CMPF (20 uM and 200 uM, as observed in our NGT-pregnant and GDM-pregnant samples respectively (FIG. 2)), as well as a vehicle control (EtOH), its effect was studied on glucose-stimulated insulin secretion (GSIS) and insulin secretion in response to direct depolarization using the secretagogue KCl in an immortalized murine beta cell line (MIN6), as well as primary isolated human and murine islets (FIG. 3A). […] Therefore, high physiologically relevant levels of CMPF impair GSIS.
# primary human islets = assay: Glucose-stimulated insulin secretion in primary human islets; type: cell-based; conditions: 200 uM, 24 hour pre-incubation, vs vehicle and 20 uM
# Procedure: as §1, §2
# [1] = Plasma CMPF after IP injection; type: in vivo, CD1 mice; conditions: for up to 2 hours but not at 6 hours post-injection, n=4/group
# Procedure: CD1 mice were injected IP with either vehicle control (black) or CMPF (white). A) Plasma samples were taken at 10, 30, 60, 120 and 360 minutes post-IP injection and assayed for CMPF. […] Over the 3-day course of IP injections, mice were monitored for body weight (B), random-fed blood glucose (C) and plasma insulin (C). There was no difference in any of these parameters. Following 3 consecutive days of CMPF injections, mice were fasted for 14 hrs and OGTTs were performed.
smiles,measurement,setting,value
"CCCc1oc(CCC(=O)O)c(C(=O)O)c1C [CMPF, 3-carboxy-4-methyl-5-propyl-2-furanpropanoic acid]",accumulation of total insulin in the media,islets,no difference
same,proinsulin in the media,islets,substantially more proinsulin
same,MMP hyperpolarization under high glucose,dispersed mouse islets; 24 hrs,significantly reduced MMP hyperpolarization
same,MMP hyperpolarization under sub-stimulatory glucose,dispersed mouse islets; 24 hrs,significantly greater hyperpolarization
same,"mitochondrial membrane potential, acute addition",dispersed mouse islets; acute,transient membrane hyperpolarization
same,"Annexin V and propidium iodide staining (apoptosis, necrosis)",MIN6 cells,No significant staining
same,GSIS,"primary murine islets; 24 hour pre-incubation, vs vehicle and 20 uM",impairs GSIS
same,glucose- and KCl-stimulated insulin secretion,"primary murine islets; CD1 mouse islets, 24 hours",significantly impaired
same,GSIS,primary human islets,impairs GSIS
same,plasma CMPF level after IP injection,[1],significantly elevated

# Source: US9726659B2, “CMPF as a biomarker for diabetes and associated methods” (The Governing Council of the University of Toronto, priority 2012, dated 2017)
